Target: IDO1 (Homo sapiens, UniProt P14902)
Assay: IDO1 Cellular Assay in HeLa Cells Stimulated with IFNγ
Assay type: cell-based
Settings: read-out: HeLa Cell Potency, IC50

IDO1, sequence (P14902 whole entry): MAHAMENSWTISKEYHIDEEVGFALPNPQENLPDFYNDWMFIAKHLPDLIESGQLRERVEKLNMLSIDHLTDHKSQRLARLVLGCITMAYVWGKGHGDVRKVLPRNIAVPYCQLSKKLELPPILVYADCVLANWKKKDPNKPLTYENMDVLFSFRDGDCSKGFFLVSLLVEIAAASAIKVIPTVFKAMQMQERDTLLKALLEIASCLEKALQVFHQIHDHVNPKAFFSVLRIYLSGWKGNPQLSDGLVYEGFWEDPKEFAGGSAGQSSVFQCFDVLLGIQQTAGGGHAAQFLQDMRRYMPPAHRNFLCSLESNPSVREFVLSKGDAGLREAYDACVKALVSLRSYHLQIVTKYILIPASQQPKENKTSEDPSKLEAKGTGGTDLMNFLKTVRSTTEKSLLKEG

`Cc1cccc(N2CCN(C(=O)Cn3nc(C(=O)N4CCC(C(N)=O)CC4)c4c3CCC4)CC2)c1C` [Example 137, 1-(1-{2-[4-(2,3-dimethylphenyl)piperazin-1-yl]-2-oxoethyl}-1,4,5,6-tetrahydrocyclopenta[c]pyrazole-3-carbonyl)piperidine-4-carboxamide] was tested, and the IC50 was 19.3 nM.
Work on `Cc1cccc(N2CCN(C(=O)Cn3nc(C(=O)N4CCC(n5nccn5)CC4)c4c3CCC4)CC2)c1C` [Example 138, 1-[4-(2,3-dimethylphenyl)piperazin-1-yl]-2-{3-[4-(2H-1,2,3-triazol-2-yl)piperidine-1-carbonyl]-5,6-dihydrocyclopenta[c]pyrazol-1(4H)-yl}ethan-1-one] yielded an IC50 of 3.92 nM.
Molecule `Cc1cccc(N2CCN(C(=O)Cn3nc(C(=O)N4CCC(S(C)(=O)=O)CC4)c4c3CCC4)CC2)c1C` [Example 139, 1-[4-(2,3-dimethylphenyl)piperazin-1-yl]-2-{3-[4-(methylsulfonyl)piperidine-1-carbonyl]-5,6-dihydrocyclopenta[c]pyrazol-1(4H)-yl}ethan-1-one] has an IC50 of 6.98 nM.
`Cc1cccc(N2CCN(C(=O)Cn3nc(C(=O)N4CCC5(CCC(=O)N5C)CC4)c4c3CCC4)CC2)c1C` [Example 140, 8-(1-{2-[4-(2,3-dimethylphenyl)piperazin-1-yl]-2-oxoethyl}-1,4,5,6-tetrahydrocyclopenta[c]pyrazole-3-carbonyl)-1-methyl-1,8-diazaspiro[4.5]decan-2-one] showed an IC50 of 7.33 nM.
`Cc1cccc(N2CCN(C(=O)Cn3nc(C(=O)N4CCC5(CC4)CC5CO)c4c3CCC4)CC2)c1C` (stereo not drawn) [Example 143, 1-[4-(2,3-dimethylphenyl)piperazin-1-yl]-2-{3-[1-(hydroxymethyl)-6-azaspiro[2.5]octane-6-carbonyl]-5,6-dihydrocyclopenta[c]pyrazol-1(4H)-yl}ethan-1-one] gave an IC50 of 1.9 nM.
`Cc1cccc(N2CCN(C(=O)Cn3nc(C(=O)N4CCC(C(C)(C)O)CC4)c4c3CCC4)CC2)c1C` [Example 144, 1-[4-(2,3-dimethylphenyl)piperazin-1-yl]-2-{3-[4-(2-hydroxypropan-2-yl)piperidine-1-carbonyl]-5,6-dihydrocyclopenta[c]pyrazol-1(4H)-yl}ethan-1-one] gave an IC50 of 1.58 nM.
`Cc1cccc(N2CCN(C(=O)Cn3nc(C(=O)N4CCC(c5cc[nH]n5)CC4)c4c3CCC4)CC2)c1C` [Example 145, 1-[4-(2,3-dimethylphenyl)piperazin-1-yl]-2-{3-[4-(1H-pyrazol-3-yl)piperidine-1-carbonyl]-5,6-dihydrocyclopenta[c]pyrazol-1(4H)-yl}ethan-1-one] gave an IC50 of 1.77 nM.
Work on `Cc1cccc(N2CCN(C(=O)Cn3nc(C(=O)N4CCC(O)C(CO)C4)c4c3CCC4)CC2)c1C` (stereo not drawn) [Example 148, 1-[4-(2,3-dimethylphenyl)piperazin-1-yl]-2-{3-[4-hydroxy-3-(hydroxymethyl)piperidine-1-carbonyl]-5,6-dihydrocyclopenta[c]pyrazol-1(4H)-yl}ethan-1-one] yielded an IC50 of 7.98 nM.
In the case of `Cc1cccc(N2CCN(C(=O)Cn3nc(C(=O)N4CCC(O)C(F)(F)C4)c4c3CCC4)CC2)c1C` (stereo not drawn) [Example 149, 2-[3-(3,3-difluoro-4-hydroxypiperidine-1-carbonyl)-5,6-dihydrocyclopenta[c]pyrazol-1(4H)-yl]-1-[4-(2,3-dimethylphenyl)piperazin-1-yl]ethan-1-one], the IC50 is reported as 3.96 nM.
`Cc1cccc(N2CCN(C(=O)Cn3nc(C(=O)N4C5CCC4CC(O)C5)c4c3CCC4)CC2)c1C` (stereo not drawn) [Example 150, 1-[4-(2,3-dimethylphenyl)piperazin-1-yl]-2-[3-(3-hydroxy-8-azabicyclo[3.2.1]octane-8-carbonyl)-5,6-dihydrocyclopenta[c]pyrazol-1(4H)-yl]ethan-1-one] gave an IC50 of 18.5 nM.
For `Cc1cccc(N2CCN(C(=O)Cn3nc(C(=O)N4CC5CCC4CC5O)c4c3CCC4)CC2)c1C` (stereo not drawn) [Example 151, 1-[4-(2,3-dimethylphenyl)piperazin-1-yl]-2-[3-(5-hydroxy-2-azabicyclo[2.2.2]octane-2-carbonyl)-5,6-dihydrocyclopenta[c]pyrazol-1(4H)-yl]ethan-1-one], the IC50 was 4.63 nM.
With `Cc1cccc(N2CCN(C(=O)Cn3nc(C(=O)N4CC5CCC4CC5O)c4c3CCC4)CC2)c1C` (stereo not drawn) [Example 152, 1-[4-(2,3-dimethylphenyl)piperazin-1-yl]-2-[3-(5-hydroxy-2-azabicyclo[2.2.2]octane-2-carbonyl)-5,6-dihydrocyclopenta[c]pyrazol-1(4H)-yl]ethan-1-one] the IC50 was 34.2 nM.
Molecule `Cc1cccc(N2CCN(C(=O)Cn3nc(C(=O)N4CC5CCC(F)(F)C5C4)c4c3CCC4)CC2)c1C` (stereo not drawn) [Example 153, 2-[3-(4,4-difluorohexahydrocyclopenta[c]pyrrole-2(1H)-carbonyl)-5,6-dihydrocyclopenta[c]pyrazol-1(4H)-yl]-1-[4-(2,3-dimethylphenyl)piperazin-1-yl]ethan-1-one] has an IC50 of 3.19 nM.
Molecule `Cc1cccc(N2CCN(C(=O)Cn3nc(C(=O)N4CCC(CCO)C4)c4c3CCC4)CC2)c1C` (stereo not drawn) [Example 154, 1-[4-(2,3-dimethylphenyl)piperazin-1-yl]-2-{3-[3-(2-hydroxyethyl)pyrrolidine-1-carbonyl]-5,6-dihydrocyclopenta[c]pyrazol-1(4H)-yl}ethan-1-one] has an IC50 of 2.99 nM.
`Cc1cccc(N2CCN(C(=O)Cn3nc(C(=O)N4CCOC(CO)C4)c4c3CCC4)CC2)c1C` (stereo not drawn) [Example 155, 1-[4-(2,3-dimethylphenyl)piperazin-1-yl]-2-{3-[2-(hydroxymethyl)morpholine-4-carbonyl]-5,6-dihydrocyclopenta[c]pyrazol-1(4H)-yl}ethan-1-one] was tested, and the IC50 was 28.5 nM.
`Cc1cccc(N2CCN(C(=O)Cn3nc(C(=O)N4CCOC(CO)C4)c4c3CCC4)CC2)c1C` (stereo not drawn) [Example 156, 1-[4-(2,3-dimethylphenyl)piperazin-1-yl]-2-{3-[2-(hydroxymethyl)morpholine-4-carbonyl]-5,6-dihydrocyclopenta[c]pyrazol-1(4H)-yl}ethan-1-one] showed an IC50 of 29.3 nM.
`Cc1cccc(N2CCN(C(=O)Cn3nc(C(=O)N4CCN(C(C)C)CC4)c4c3CCC4)CC2)c1C` [Example 159, 1-[4-(2,3-dimethylphenyl)piperazin-1-yl]-2-{3-[4-(propan-2-yl)piperazine-1-carbonyl]-5,6-dihydrocyclopenta[c]pyrazol-1(4H)-yl}ethan-1-one] showed an IC50 of 25.2 nM.
In the case of `Cc1cccc(N2CCN(C(=O)Cn3nc(C(=O)N4CCN(CCO)CC4)c4c3CCC4)CC2)c1C` [Example 162, 1-[4-(2,3-dimethylphenyl)piperazin-1-yl]-2-{3-[4-(2-hydroxyethyl)piperazine-1-carbonyl]-5,6-dihydrocyclopenta[c]pyrazol-1(4H)-yl}ethan-1-one], the IC50 is reported as 10.5 nM.
Work on `Cc1cccc(N2CCN(C(=O)Cn3nc(C(=O)N4CCC5(CC4)COC(=O)N5)c4c3CCC4)CC2)c1C` [Example 163, 8-(1-{2-[4-(2,3-dimethylphenyl)piperazin-1-yl]-2-oxoethyl}-1,4,5,6-tetrahydrocyclopenta[c]pyrazole-3-carbonyl)-3-oxa-1,8-diazaspiro[4.5] decan-2-one] yielded an IC50 of 10.3 nM.
Work on `Cc1cccc(N2CCN(C(=O)Cn3nc(C(=O)N4CCC(N5CCCC5)CC4)c4c3CCC4)CC2)c1C` [Example 164] yielded an IC50 of 68.9 nM.
`Cc1cccc(N2CCN(C(=O)Cn3nc(C(=O)N4CCN(C)[C@@H](C)C4)c4c3CCC4)CC2)c1C` [Example 166, 1-[4-(2,3-dimethylphenyl)piperazin-1-yl]-2-{3-[(3S)-3,4-dimethylpiperazine-1-carbonyl]-5,6-dihydrocyclopenta[c]pyrazol-1(4H)-yl}ethan-1-one] was tested, and the IC50 was 6.18 nM.

Reference: patent US12264134B2 (Merck Sharp & Dohme LLC, priority 2018, dated 2025)
